The source of these data is the METLIN SMRT retention time set (Domingo-Almenara et al. 2019).

The series is described as follows: gradient 5% acetonitrile 3 min, to 50% in 2 min, to 85% in 15 min, held 3 min, 100 µL/min. Particulars: column: Zorbax Extend-C18 2.1 x 50 mm; eluents: water / acetonitrile, 0.1% formic acid. Put shortly: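 Retention time was recorded from adduct peaks, which were picked computationally and each inspected manually. Pure standards ran in mixtures of ~100 molecules on HPLC coupled to a quadrupole time-of-flight mass spectrometer, in positive and negative ionization mode, through a Zorbax Extend-C18 column (2.1 × 50 mm, 1.8 μm) at 100 μL/min. Eluents were water and acetonitrile, each with 0.1% formic acid.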
Consider `O=C(Nc1ccc(F)cc1)C1CCCN(c2ccc3cc(S(=O)(=O)N4CCCC4)ccc3n2)C1` (stereo not drawn), for which the RP-LC retention time was determined as 634 s.
Molecule `O=C(Cn1ccc2ccc(N3CCOCC3)nc21)NCc1ccc(Br)cc1` registered an RP-LC retention time of 915 s.
The figure for `c1ccc(N2CCN(Cc3nc(-c4ccc(N5CCSCC5)nc4)no3)CC2)cc1` is 937 s; for `Cc1cc2c(=O)n(CC(=O)NCc3ccc(F)cc3Cl)ccc2s1` it is 814 s; for `Cc1ccc(S(=O)(=O)N2CCCC(c3nnc(COc4ccccc4)o3)C2)c(C)c1` (stereo not drawn) it is 984 s.
The same measure for `CCc1ccc(NC(=O)N2CCCC2c2nc(-c3ccccc3OC)no2)cc1` (stereo not drawn): 976 s.
In turn, `O=c1c2nc(-c3ccc(F)cc3F)cn2ccn1-c1ccc2c(c1)CCC2` yielded an RP-LC retention time of 1030 s.
The same measure for `CC(C)Cn1cc(CCNC(=O)Nc2cccc(Br)c2)c2cccnc21`: 904 s; for `Cc1ccc2c(c1)c(C)c(C)n2CC(O)Cn1nc(C)cc1C` (stereo not drawn): 933 s; for `Cc1cccc(NC(=O)Nc2ccc(-c3cn4ccc(C)nc4n3)cc2)c1`: 670 s.
The same measure for `O=C(c1cc2c(s1)CCC(C(=O)N1CCN(C3CCCC3)CC1)C2)N1CCCC1` (stereo not drawn): 606 s; for `CC(=O)c1ccc(NC(=O)CCSc2ccc(F)cc2)cc1`: 835 s.
Molecule `Cc1ccc(N2C(=O)CN(Cc3ccco3)[C@H]3CS(=O)(=O)C[C@H]32)cc1` gave an RP-LC retention time of 737 s.
For `O=C(c1cscn1)N1CCc2nn(CC3CC3)c(=O)n2CC1`, the RP-LC retention time stood at 610 s.
The same measure for `COc1cccc(-c2noc(-c3nn(-c4ccc(F)c(F)c4)ccc3=O)n2)c1OC`: 796 s; for `Cc1nn(CC(=O)NCCN2CCCCC2)c(=O)c2nc(-c3ccccc3)sc12`: 623 s; for `O=C(c1ccc(F)c(F)c1)N1CCc2nc(-c3ccccc3)ncc2C1`: 951 s.
The same measure for `CCOC(=O)c1noc2nc(C)nc(N(C)Cc3ccccc3)c12`: 1060 s; for `Cc1nnc(-c2nnc(NCc3ccccc3Cl)c3ccccc23)o1`: 909 s; for `COc1cccc(CNC(=O)c2ccc3c(c2)N(C)C(=O)c2ccccc2O3)c1`: 852 s.
The figure for `O=C(Cc1coc2ccc3ccccc3c12)NCc1ccco1` is 818 s; for `Cc1nn2c(-n3ccnc3C)c3c(nc2c1-c1ccccc1)CCC3` it is 606 s.
`CCN1CCN(c2c(S(=O)(=O)c3ccc(C)c(C)c3)cnc3ccc(OC)cc23)CC1` showed an RP-LC retention time of 679 s.
The same measure for `C=C1C(=O)O[C@@H]2[C@H]3O[C@]3(C)CCC=C(C)CC[C@@H]12`: 844 s.
The figure for `Cc1cccc(C(=O)N2CCc3cc(CNS(=O)(=O)Cc4ccccc4)ccc32)c1` is 972 s.
The figure for `CC(C)NC(=O)c1ccc(OCC2CCCN(C(=O)c3ccc(F)cc3F)C2)cc1` (stereo not drawn) is 869 s; for `CC(NC(=O)Cc1c(F)cccc1Cl)C(=O)N1CCN(c2ccccn2)CC1` (stereo not drawn) it is 599 s.
On to `CCCn1cnc2ccc(-c3noc(C(C)NC(=O)c4ccco4)n3)cc21` (stereo not drawn), for which the RP-LC retention time was found to be 584 s.
`CC(C)Cc1ccc(S(=O)(=O)N2CCC3(CCC(CN4CCN(C)CC4)O3)CC2)cc1` (stereo not drawn) showed an RP-LC retention time of 688 s.
The same measure for `COc1ccc(CNC(=O)Cn2c(=O)c3cc(-c4cccs4)nn3c3ncccc32)cc1`: 816 s.
The same measure for `Cc1ccc2c(c1)C(O)(CC(=O)c1cccc(Br)c1)C(=O)N2` (stereo not drawn): 789 s; for `Cc1ccc(F)cc1NS(=O)(=O)c1ccc(-c2nnc(C3CCC3)o2)o1`: 931 s.
The figure for `Cc1cc(SCC(=O)Nc2ccccc2Br)nc(-c2ccc(F)cc2)n1` is 1170 s.
